Test [1] has as its target T1, FSH receptor (Homo sapiens, UniProt P23945).
T1 sequence (P23945 18-695): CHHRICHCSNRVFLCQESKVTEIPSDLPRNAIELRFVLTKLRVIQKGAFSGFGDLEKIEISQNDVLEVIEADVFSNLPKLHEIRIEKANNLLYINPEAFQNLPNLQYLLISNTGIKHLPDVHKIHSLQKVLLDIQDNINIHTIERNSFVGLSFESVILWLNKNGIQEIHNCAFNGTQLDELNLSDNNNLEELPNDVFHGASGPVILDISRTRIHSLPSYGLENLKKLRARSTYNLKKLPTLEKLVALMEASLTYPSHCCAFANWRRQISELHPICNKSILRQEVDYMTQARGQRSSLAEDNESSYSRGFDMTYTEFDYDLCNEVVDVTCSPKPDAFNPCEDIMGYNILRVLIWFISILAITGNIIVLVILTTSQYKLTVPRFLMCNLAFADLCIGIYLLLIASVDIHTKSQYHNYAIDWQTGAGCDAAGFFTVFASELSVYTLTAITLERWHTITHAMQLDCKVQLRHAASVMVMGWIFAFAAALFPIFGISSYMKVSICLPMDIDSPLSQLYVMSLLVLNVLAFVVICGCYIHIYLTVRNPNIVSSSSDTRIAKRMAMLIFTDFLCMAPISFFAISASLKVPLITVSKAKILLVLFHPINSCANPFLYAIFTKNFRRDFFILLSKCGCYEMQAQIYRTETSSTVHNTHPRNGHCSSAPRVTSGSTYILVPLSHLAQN
The test can be described thus: FSH Receptor Radioligand Membrane Binding Standard Pharmacological Test Procedure. Set-up: expressed in transfected cells. Particulars: [125I]FSH binding to membranes of CHO cells stably transfected with the human FSH receptor. The procedure: FSH Receptor Radioligand Membrane Binding Standard Pharmacological Test Procedure
Membrane Source: Chinese hamster ovarian cells stably transfected with the human FSH receptor were cultured (Ultra CHO medium containing 1% fetal bovine serum and 200 μg/mL G418) in and harvested. Cells were collected by centrifugation and resulting cell pellets were frozen and stored at −70° C.
Membrane Receptor Preparation: Frozen cell pellets were weighed and resuspended in binding buffer to a final concentration of 30 mg wet weight/mL. Cell suspension for each pellet was homogenized using a Tempest homogenizer (setting=1; 5 strokes; VirTis, Gardiner, N.Y.). Cell homogenates were pooled and 35 mL aliquots were transferred to 50-mL polypropylene copolymer centrifuge tubes (Nalgene cat. #3110-0500). Tubes were spun at 12,000 rpm (SS34 rotor) for 12 min at 4° C. Resulting supernatant fractions were discarded and pellets were stored at −70° C. until use. On the day of the procedure, 35 mL binding buffer was added to each tube (35 mL membrane suspension was sufficient for three 96-well plates). The membrane pellet was dispersed by trituration using a pipet. The resulting suspension wass homogenized using a Tempest homogenizer (3 strokes at setting=1).
Receptor Binding Test procedure: Membrane homogenate (100 μl) was added to each well of a 96-well microtiter plate (Falcon # 3077). All reactions were tested in triplicate. Test compound solutions (50 μl) were added to the designated wells. Total bound counts were determined by adding 50 μl binding buffer containing 4% DMSO to the designated wells. […] Plates were pre-incubated for 15 min at room temperature on shaking platform (setting=3). After preincubation [^125I]FSH (50 μl) was added to each well and plates were incubated for 2 h at room temperature on shaking platform (setting=3). The reaction was terminated by transfer of the membrane preparation to glass fiber filters (Blue Mat #11740; 102×256 mm; Skatron Instruments, Sterling, Va.) that had been pretreated with 1% BSA in wash buffer for at least 30 min, but not longer than 1 h using a 96-well microtiter vacuum harvester (Skatron Instruments). The membrane preparation was washed with 5 cycles of ice-cold wash buffer (200 μl/well/cycle) followed by a pulse wash of 3 cycles (100 μl/well/cycle). The total wash volume per well was 1.3 mL. The filters were dried by a 10 sec aspiration. Disks corresponding to each well of the microtiter plate were punched out of the filter mat into 12×75 mm polypropylene tubes. The radioactivity present on each of the disks was measured using a gamma counter.
An FSH dose response curve (0.001, 0.01, 0.1, 1, 10, and 100 nM) was generated for each binding procedure to monitor procedure to procedrue variability.
FSH Receptor Radioligand Membrane Binding Procedure Buffers and Reagents
Binding buffer is prepared in 11 volumes containing Trizma-HCl, MgCl2, CaCl2 and sodium azide, the pH was adjusted to 7.2 with NaOH, and stored at 4° C. until use. BSA was weighed out on the day of the procedure and added to the amount of buffer required for the procedure (usually 150 mL). The protease inhibitors were prepared as 1 mg/mL stocks (aprotinin, leupeptin, and phosphoramidon were prepared in binding buffer without BSA and protease inhibitors; pepstatin and PMSF were prepared in methanol), stored in 1 mL aliquots at −70° C., and added to the binding buffer on the day of the procedure.
Wash buffer was prepared containing Trizma-HCl, MgCl2 and EDTA, the pH was adjusted to 7.2 with NaOH, and stored at 4° C.
Filter Soak Buffer (pH 7.2)
BSA was weighed out on the day of the procedure and added to 300 mL of wash buffer. The filter soak buffer was used for two procedures before being discarded.
A portion of the stock solution was diluted in binding buffer to a concentration of 200 pM.
FSH Solution for Determining Non-specific Binding: Purified human FSH was prepared as a 100 μM solution in binding buffer without protease inhibitors. […]

In test [2] the target is T1, FSH receptor. The test can be described thus: In Vitro Bio-test Procedure of Agonists and Antagonists to the FSH Receptor (cAMP accumulation in CHO-3D2 cells). On the set-up: expressed in transfected cells; host or cells: CHO-3D2 cells. The format is cell-based. The procedure: In Vitro Bio-test Procedure of Agonists and Antagonists to the FSH Receptor
The compounds were subsequently diluted in sterile procedure medium (Optimem (Gibco/BRL, Grand Island, N.Y.)/0.1% BSA) prior to use in the bio-procedure.
Preparation of CHO-3D2 Cells; CHO-3D2 cells were plated into 96-well Nunc tissue culture plates at a density of 30,000 cells/well in DMEM/F12 medium (Gibco/BRL, Grand Island, N.Y.) supplemented with 5% Fetal Bovine Serum (Hyclone, Fetal Clone II), 2 mM L-glutamine and penicillin/streptomycin (100 U/mL). Cells were plated one day prior to performing the bio-procedure.
Procedure: On the day of procedure, the wells were washed two times with 100 ul/well of pre-warmed (37 deg C.) procedure medium. After aspirating the second wash, an additional 100 ul of procedure medium was added to each well and the cells pre-incubated for 30-45 minutes at 37 deg C. In a humidified incubator with 5%CO2/95% air. The cells were then challenged with varying dilutions of the test substance(s) in a 50 ul total incubation volume in procedure medium for 30 minutes at 37 deg C. in the humidified incubator. The challenge was terminated by the addition of 50 ul of 0.2 N HCl to each well. CAMP accumulation in the medium was measured by radioimmunoassay.
Test Groups: In the 96-well format, the plate is organized into 12 columns each containing 8 rows of wells. The plate was split in half to test a single compound in both agonist and antagonist mode on the same plate.
For agonist mode, compounds were tested using 5 different concentrations in a dose-response paradigm using one column as a control (challenge medium alone) in agonist mode.
The 96-well format allowed for the capability to test 4 columns of compound, using one of the remaining columns for negative control (challenge medium alone) and the other remaining column for ampositive control (ED20 of FSH alone).
The doses chosen to test each compound were extrapolated from the initial screening process (receptor binding data). Along with the test compounds, FSH was run in agonist mode using doses ranging from 0.1 ng/mL-1000 ng/mL as a postive control. Cytotoxicity of the compounds were screened by treating cells with the highest concentration of each compound used in the cAMP procedure for 30 minutes followed by washing of the cells 2 times with 100 ul PBS. The cells were then incubated for 5 min at 37 deg C. in the presence of 50 ug/mL Fluorescein diacetate and 20 ug/mL Propidium iodide in 100 ul PBS. The cells were washed two times with 100 ul PBS followed by examination of the cells under a fluorescence microscope using a 490 nm filter. Viable cells stained green throughout, while dead cells had red fluorescent nuclei.
Analysis of Results: cAMP accumulation was expressed as fmol/mL. […] Data were analyzed statistically by analysis of variance and significant differences between treatments and control determined by Dunnett's test. In antagonist mode, a Duncan's test was used.
Reference Compounds: Test compounds were compared to the effect of purified or recombinant human FSH.
On the technique in general: Cyclic AMP is a second messenger, typically raised through Gs and lowered through Gi signalling.

Molecules are shown by their SMILES.

On to `COc1ccc(C(=O)Nc2ccc(/C=C/c3ccc(NC(=O)c4ccc(OC)c(S(=O)(=O)NCCN5CCOCC5)c4)cc3S(=O)(=O)O)c(S(=O)(=O)O)c2)cc1S(=O)(=O)NCCN1CCOCC1` [Example 30n], for which the IC50 on FSH receptor [1] is 1.8 µM; at FSH receptor [2], 5.5 µM.

Take `COCCN(CCOC)S(=O)(=O)c1cc(C(=O)Nc2ccc(/C=C/c3ccc(NC(=O)c4ccc(OC)c(S(=O)(=O)N(CCOC)CCOC)c4)cc3S(=O)(=O)O)c(S(=O)(=O)O)c2)ccc1OC` [Example 30o, 2,2′-[(E)-1,2-Ethenediyl]bis[5-[[3-[[bis(2-methoxyethyl)amino]sulfonyl]-4-methoxybenzoyl]amino]benzenesulfonic Acid]]: the IC50 turned out to be 2.4 µM at FSH receptor [1] and 6.2 µM on FSH receptor [2].

Take `COc1ccc(C(=O)Nc2ccc(CCc3ccc(NC(=O)c4ccc(OC)c(S(=O)(=O)N5CCOCC5)c4)cc3S(=O)(=O)O)c(S(=O)(=O)O)c2)cc1S(=O)(=O)N1CCOCC1` [Example 30p, 2,2′-(1,2-Ethanediyl)bis[5-[[4-methoxy-3-(4-morpholinylsulfonyl)benzoyl]amino]benzenesulfonic Acid]]: the IC50 on FSH receptor [1] came to 2.5 µM; on FSH receptor [2], 11 µM.

With `C=CCS(=O)(=O)c1ccc(C(=O)Nc2ccc(/C=C/c3ccc(NC(=O)c4ccc(S(=O)(=O)CC=C)cc4)cc3S(=O)(=O)O)c(S(=O)(=O)O)c2)cc1` [Example 32a], the IC50 on FSH receptor [1] worked out at 3.5 µM; at FSH receptor [2], 2.3 µM.

In the case of `CS(=O)(=O)c1ccc(C(=O)Nc2ccc(/C=C/c3ccc(NC(=O)c4ccc(S(C)(=O)=O)s4)cc3S(=O)(=O)O)c(S(=O)(=O)O)c2)s1` [Example 32b, 2,2′-[(E)-1,2-Ethenediyl]bis[5-[[[5-(methylsulfonyl)-2-thienyl]carbonyl]amino]benzenesulfonic Acid]], the IC50 at FSH receptor [1] stood at 3.2 µM; on FSH receptor [2], 2.6 µM.

Consider `COC(=O)C=CCS(=O)(=O)c1cccc(C(=O)Nc2ccc(C=Cc3ccc(NC(=O)c4cccc(S(=O)(=O)CC=CC(=O)OC)c4)cc3S(=O)(=O)O)c(S(=O)(=O)O)c2)c1` [Example 32e, 4-{3-[4-(2-{4-{3-(3-Methoxycarbonyl-prop-2-ene-1-sulfonyl)-benzoylamino]-2-sulfo-phenyl}-vinyl)-3-sulfo-phenylcarbomoyl]-benzenesulfonyl}-but-2-enoic Acid, Methyl Ester], for which the IC50 on FSH receptor [1] came out at 4.9 µM; on FSH receptor [2] (antagonist mode, inhibition of hFSH-induced cAMP accumulation (ED20 of FSH, […]), CHO-3D2 cells), 9 µM.

Take `CCSc1ccc(C(=O)Nc2ccc(/C=C/c3ccc(NC(=O)c4ccc(SCC)c(S(=O)(=O)N5CCOCC5)c4)cc3S(=O)(=O)O)c(S(=O)(=O)O)c2)cc1S(=O)(=O)N1CCOCC1` [Example 32i, 2,2′-[(E)-1,2-Ethenediyl]bis[5-[[4-(ethylthio)-3-(4-morpholinylsulfonyl)benzoyl]amino]benzenesulfonic Acid]]: the half-maximal inhibitory concentration (IC50) came to 3.7 µM at FSH receptor [1] and 4.9 µM on FSH receptor [2].

On to `COCCOCCSc1ccc(C(=O)Nc2ccc(/C=C/c3ccc(NC(=O)c4ccc(SCCOCCOC)c(S(=O)(=O)N5CCOCC5)c4)cc3S(=O)(=O)O)c(S(=O)(=O)O)c2)cc1S(=O)(=O)N1CCOCC1` [Example 32o], for which the IC50 was 1.5 µM on FSH receptor [1] and 1 µM on FSH receptor [2].

For the compound `CCN(CC)S(=O)(=O)c1cc(C(=O)Nc2ccc(/C=C/c3ccc(NC(=O)c4ccc(OC)c(S(=O)(=O)N(CC)CC)c4)cc3S(=O)(=O)O)c(S(=O)(=O)O)c2)ccc1OC` [Example 33c, 2,2′-[(E)-1,2-Ethenediyl]bis[5-[[3-[(diethylamino)sulfonyl]-4-methoxybenzoyl]amino]benzenesulfonic Acid]], the IC50 on FSH receptor [1] is 6.2 µM; at FSH receptor [2], 4.5 µM.

In the case of `COc1ccc(C(=O)Nc2ccc(/C=C/c3ccc(NC(=O)c4ccc(OC)c(S(=O)(=O)N5CCCCCC5)c4)cc3S(=O)(=O)O)c(S(=O)(=O)O)c2)cc1S(=O)(=O)N1CCCCCC1` [Example 33f], the half-inhibitory concentration (IC50) at FSH receptor [1] turned out to be 16 µM; on FSH receptor [2], 11 µM.

Take `COc1ccc(C(=O)Nc2ccc(Sc3ccc(NC(=O)c4ccc(OC)c(S(=O)(=O)N5CCOCC5)c4)cc3S(=O)(=O)O)c(S(=O)(=O)O)c2)cc1S(=O)(=O)N1CCOCC1` [Example 33h, 2,2′-Thiobis[5-[[4-methoxy-3-(4-morpholinylsulfonyl)benzoyl]amino]benzenesulfonic Acid]]: the IC50 at FSH receptor [1] is 23 µM; at FSH receptor [2] it was 67 µM.

In general, IC50 refers to the point on the concentration scale where inhibition reaches its midpoint. Read a low IC50 as greater potency.

The values are drawn from patent US6355633B1, “Aryl sulfonic acids and derivatives as FSH antagonists” (American Home Products Corporation, priority 1999, dated 2002).
